Usually Emax stands for the greatest response seen or fitted, relative to the assay's reference. The term melting point denotes the temperature of the solid-liquid transition.

This note sets out measurements from patent US20210122763A1, “OGA INHIBITOR COMPOUNDS” (Janssen Pharmaceutica NV, priority 2018, published 2021).

The target in series [1] is T1, OGA (Homo sapiens, UniProt O60502).
T1 construct: HEK293 cells inducible for P301L mutant human Tau (isoform 2N4R) were established at Janssen; endogenous in cells; host or cells: HEK293 cells inducible for P301L mutant human Tau (2N4R)
T1 sequence (O60502 1-916): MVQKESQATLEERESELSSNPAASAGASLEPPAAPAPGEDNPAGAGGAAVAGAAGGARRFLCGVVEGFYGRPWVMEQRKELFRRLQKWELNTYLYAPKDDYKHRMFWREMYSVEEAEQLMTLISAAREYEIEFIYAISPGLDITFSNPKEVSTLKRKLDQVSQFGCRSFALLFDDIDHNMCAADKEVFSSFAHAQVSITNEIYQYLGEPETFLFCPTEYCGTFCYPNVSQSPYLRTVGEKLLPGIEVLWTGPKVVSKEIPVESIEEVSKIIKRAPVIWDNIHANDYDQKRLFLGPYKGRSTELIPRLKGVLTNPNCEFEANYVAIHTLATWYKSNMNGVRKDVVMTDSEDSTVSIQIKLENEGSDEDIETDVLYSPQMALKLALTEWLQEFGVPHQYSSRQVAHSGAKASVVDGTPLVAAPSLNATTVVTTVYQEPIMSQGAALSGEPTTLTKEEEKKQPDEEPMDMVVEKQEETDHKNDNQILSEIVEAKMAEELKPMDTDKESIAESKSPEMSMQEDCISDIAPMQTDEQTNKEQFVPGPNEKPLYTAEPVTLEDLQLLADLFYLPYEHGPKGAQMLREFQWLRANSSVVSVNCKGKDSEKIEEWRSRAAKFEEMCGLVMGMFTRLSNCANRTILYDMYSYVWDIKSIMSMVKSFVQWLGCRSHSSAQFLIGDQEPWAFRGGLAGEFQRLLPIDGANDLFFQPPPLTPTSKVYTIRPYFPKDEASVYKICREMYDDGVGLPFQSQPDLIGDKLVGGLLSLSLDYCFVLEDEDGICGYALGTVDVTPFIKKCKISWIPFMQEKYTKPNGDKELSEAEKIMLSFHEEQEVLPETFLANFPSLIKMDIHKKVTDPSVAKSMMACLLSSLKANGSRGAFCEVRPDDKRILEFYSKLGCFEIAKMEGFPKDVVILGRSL
In words: OGA cellular assay (ICC detection of O-GlcNAcylated proteins in HEK293 cells inducible for P301L mutant human Tau). The series is classed as cell-based. Particulars: 6 hours incubation; for Emax: HEK293, HEK293 cells inducible for P301L mutant human Tau, maximum = Thiamet G 200 uM; for EC50: HEK293 cells inducible for P301L mutant human Tau, read-out: Cellular hOGA, pEC50 (converted). The method in brief:
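HEK293 cells with inducible P301L 2N4R Tau, seeded in low-glucose medium, were exposed to compounds for 6 hours (0.2% DMSO), then PFA-fixed and stained with CTD110.6. Imaging intensity at 488 nm measured O-GlcNAcylation, with Hoechst nuclei counts for toxicity. IC50s came from non-linear regression, with Thiamet G at 200 uM as maximum inhibition.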

Series [2] has as its target T2, recombinant human Meningioma Expressed Antigen 5 (MGEA5), also referred to as O-GlcNAcase (OGA) (Homo sapiens, UniProt O60502).
T2 construct: Full length OGA enzyme was purchased at OriGene (cat #TP322411); purchased OriGene TP322411
T2 sequence (O60502 1-916): T1 sequence (O60502 1-916)
In words: OGA biochemical assay (inhibition of FM-GlcNAc hydrolysis, fluorescence). The settings on record: for Emax: read-out: Enzymatic Emax (%); for IC50: read-out: Enzymatic hOGA, pIC50 (converted). The method in brief: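 Full-length OGA at 2 nM was pre-incubated 60 min at room temperature with compound, then FM-GlcNAc at 100 uM final was added in citrate/phosphate buffer pH 7.2 with 0.005% Tween-20. After 6 h at room temperature, carbonate pH 11.0 stopped the reaction. Fluorescence read at 485/538 nm; IC50 and Hill coefficient from curve fit against no-inhibitor and saturating-standard controls.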

Regarding `Cc1nc(OC2CCN(C(C)c3nc4c(cc3F)OCCO4)CC2)ccc1C#N` (stereo not shown) [Compound 112], the melting point is 153.41 °C. Further, in series [1], the Emax worked out at 87% and the EC50 was 158 nM. Moreover, in series [2], the Emax is 96% and the IC50 was 10 nM.
The matching figures for `Cc1cc(OC2CCN(C(C)c3nc4c(cc3F)OCCO4)CC2)ncc1C#N` (stereo not shown) [Compound 113]: 161.44 °C, 83%, 126 nM, 96% and 15.8 nM.
The matching figures for `CNC(=O)c1ccc(OC2CCN(C(C)c3ccc4c(n3)OCCO4)CC2)cn1` (stereo not shown) [Compound 122]: 94.5 °C, 48%, 794 nM, 100% and 79.4 nM.
The matching figures for `Cc1ccc(NC2CCN(C(C)c3nc4c(cc3F)OCCO4)CC2)cn1` (stereo not shown) [Compound 126]: 138 °C, 73%, 63.1 nM, 99% and 25.1 nM.
For `Cc1ncc(NC2CCN(C(C)c3nc4c(cc3F)OCCO4)CC2)cn1` (stereo not shown) [Compound 127], the melting point came to 209.9 °C. In addition, in series [1], the Emax was 81% and the EC50 is 135 nM. In addition, in series [2], the Emax was 98% and the IC50 is 20 nM.
For `Cc1cc(NC2CCN(C(C)c3nc4c(cc3F)OCCO4)CC2)cc(C)n1` (stereo not shown) [Compound 133] the same measures were 250 °C, 87%, 50.1 nM, 97% and 25.1 nM.
The matching figures for `Cc1ncc(COC2CCN(C(C)c3nc4c(cc3F)OCCO4)CC2)cn1` (stereo not shown) [Compound 135]: 132.9 °C, 97%, 79.4 nM, 97% and 31.6 nM.
Turning to `Cc1ncc(OC2CCN(C(C)c3ccc4c(n3)OCCC4)CC2)cn1.Cl` (stereo not shown) [Compound 139], the melting point is 208.1 °C. In series [1], the Emax is 31% and the EC50 was over 1000 nM. Moreover, in series [2], the Emax is 95% and the IC50 is 200 nM.
For `Cc1cc(CC2CCN(C(C)c3ccc4c(n3)OCCO4)CC2)cc(C)n1` (stereo not shown) [Compound 140] the same measures were 144.6 °C, 64%, 251 nM, 98% and 398 nM.
The matching figures for `Cc1cnc(OC2CCN(C(C)c3ccc4c(n3)OCCO4)CC2)cn1` (stereo not shown) [Compound 141]: 119.6 °C, 51%, 794 nM, 97% and 200 nM.
For `CCOc1cc(OC2CCN(C(C)c3ccc4c(n3)OCCO4)CC2)cc(C)n1.Cl` (stereo not shown) [Compound 142] the same measures were 119.6 °C, 73%, 158 nM, 104% and 25.1 nM.
`CC(c1ccc2c(n1)OCCO2)N1CCC(Oc2ccc(C#N)nc2)CC1` (stereo not shown) [Compound 150] gave a melting point of 133 °C. Besides, in series [1], the Emax was 57% and the EC50 is 398 nM. Further, in series [2], the Emax came to 95% and the IC50 was 79.4 nM.
For `Cc1ccc(OC2CCN(C(C)c3ccc4c(n3)OCCO4)CC2)nn1.Cl` (stereo not shown) [Compound 151] the same measures were 168 °C, 30%, over 1000 nM, 98% and 200 nM.
For `Cc1ccc(OC2CCN(C(C)c3nc4c(cc3F)OCCO4)CC2)nc1C` (stereo not shown) [Compound 156] the same measures were 140.6 °C, 67%, 200 nM, 102% and 20 nM.
